Experimental data as given in US12459891B2, “1-[1-(4-benzyloxy-3,5-difluoro-benzoyl)-4-fluoro-pyrrolidine-2-carbonyl]-pyrrolidine-2-carbonitrile” (ACCURE THERAPEUTICS, S.L., priority 2020, dated 2025).

Tests used:
MK-801-treated mice = assay: Novel object recognition (NOR) task, MK-801-induced cognitive deficit; format: in vivo, male C57/Bl6 mice; details: mean ± s.e.m.
POP = details: non-competitive POP inhibitor; read-out: IC50 (POP inhibition); cited from earlier work

Structure (SMILES) | % discrimination index (MK-801-treated mice; MK 801 0.2 mg/kg sc alone (vehicle ip), intraperitoneal experiment) [%] | % discrimination index (MK-801-treated mice; MK 801 0.2 mg/kg sc alone (vehicle po), oral experiment) [%] | IC50 (POP) [µM]
C[C@]12N[C@H](Cc3ccccc31)c1ccccc12 [MK 801, Dizocilpine] | 21 ± 4.7 | 16.6 ± 5.9 | 
O=C(/C=C/c1ccc(O)c(O)c1)O[C@H](Cc1ccc(O)c(O)c1)C(=O)O [rosmarinic acid] |  |  | 63.7
